The text below walks through data of US20140234345A1, “NOVEL ANTI-CANCER ISOC[…] CONJUGATES” (priority 2011, published 2014).

Data set [1] in a line: I(a) concentration in Cremophor EL:ethanol composition (HPLC). Conditions: 1:60 w/w I(a):CrEL, ethanol 1:1 v/v to CrEL, room temperature. Type of data set: physicochemical. As to the method: One to sixty (1:60) ratio by weight of compound I(a) to CrEL was mixed into a glass vial and stirred for about one hour at room temperature to allow solubilization. Dehydrated ethanol USP was then added at a ratio (v/v) one to one (1:1) to CrEL. The mixture was stirred for half hour to ensure the dissolution of the mixture. The final solution was then tested by HPLC to verify compound I(a) concentration.

Data set [2] concerns cervical tumour cell line. Description: In vitro tumour cell line testing, cervical. The data set is classed as cell-based. Particulars: for effect on cervical tumour cell line: after 48 hours. As to the method:
(§1) A549 (CCL-185), BxPC-3 (CRL-1687), HeLa (CCL-2), LoVo (CCL-229), MCF-7 (HTB-22), and PC-3 (CRL-1435) cells were purchased from ATCC (Manassas, Va.). Alamar Blue was purchased from Invitrogen Canada Inc. (Burlington, ON). All other tissue culture and reagent grade materials were purchased from either VWR (Mississauga, ON) or Sigma Aldrich (Oakville, ON).
(§2) All cell lines were maintained at 37° C. in a CO2 cell culture incubator with 5% CO2 and 95% humidity. A549, Lovo, and PC-3 cells were cultured in F-12K media, BxPC-3 cells were culture in RPMI-1640 media, and HeLa and MCF-7 cells were cultured in Eagle's Minimum Essential Media (MEM) with […]. All cell culture media was supplemented with 10% fetal bovine serum (FBS), […] Penicillin, 0.1 mg/mL Streptomycin, 2.5 μg/mL Amphotericin B, and 50 μg/mL Gentamycin. In addition, MEM media for MCF-7 cells also contained 0.01 mg/mL bovine insulin.

For a further data set, the system named is lung tumour cells. Description: In vitro tumour cell line testing, lung. The data set is classed as cell-based. Particulars: after 72 hours. Here is the method: as §1, §2
The nature of data set [3]: Cell viability of healthy PBMC. Here is the method: (§3) All cell lines were plated in black, tissue culture treated, 96 well plates at a cell density of 1×10^5 celis/mL (1×10^4 cells/well). Cells were allowed 24 h to attach to the plate prior to being dosed with drug. […] Cells were allowed to incubate for 48 or 72 h. Following incubation cells were stained with Alamar Blue such that the final concentration of Alamar Blue in the test well was 10%. Cells were stained for 2 h and then fluorescence was measured on a Molecular Devices Analyst GT multimode plate reader using an excitation filter of 530/25 nm and an emission filter of 580/10 nm and a 561 nm dichroic mirror. Cell viability was expressed as a percentage of untreated control cells. Data are expressed as mean±standard error and are the average of four independent cell preparations.
(§4) Healthy PBMC (Peripheral Blood Mononuclear Cells) were treated similarly to the above tumour cell line tests.

Data set [4] has as its system Healthy PBMC (Peripheral Blood Mononuclear Cells). Description: Cell viability of healthy PBMC. Here is the method:
as §3, §4

A short description of data set [5]: Amount of I(a) dissolved in Vitamin E TPGS composition (HPLC assay of centrifugate). Conditions: 15:100 w/w I(a):Vitamin E TPGS, 45° C., water 8 ml per 100 mg Vitamin E, centrifuged. The data set is classed as physicochemical. As to the method: A stir bar was then added and the solution was continuously mixed while at 45° C. for a minimum of 2 hours to allow full saturation of the product. […] The mixture was then cooled to room temperature, and centrifuged to separate the undissolved material. The centrifugate was assayed for the amount of compound I(a) using HPLC.

Data set [6] concerns A549, BxPC-3, HeLa, LoVo, MCF-7 and PC-3 cells. Put plainly: In vitro testing on various tumour cell lines (Alamar Blue cell viability). Type of data set: cell-based. Conditions: after 48 hours. Here is the method: as §1, §2
(In general: Resazurin is reduced to fluorescent resorufin, in cell work by metabolically active cells.)

For data set [7], the system named is prostate tumour cell line. Put plainly: In vitro tumour cell line testing, prostate. The data set is classed as cell-based. Conditions: for effect on prostate tumour cell line: after 48 hours. Here is the method:
as §1, §2

The test system of data set [8] is pancreas tumour cell line. Description: In vitro tumour cell line testing, pancreas. The data set is classed as cell-based. Conditions: for effect on pancreas tumour cell line: after 48 hours. As to the method:
as §1, §2

Data set [9] relates to colorectal tumour cell line. Put plainly: In vitro tumour cell line testing, colorectal. Type of data set: cell-based. Particulars: for effect on colorectal tumour cell line: after 48 hours. Here is the method: as §1, §2

On to `CC/C=C\C/C=C\C/C=C\C/C=C\C/C=C\C/C=C\CCC(=O)O[C@H]1C=C2c3cc4c(c(O)c3C(=O)N[C@H]2[C@H](O)[C@@H]1O)OCO4` [Compound I(a), Narciclasine 2-Hydroxy DHA Conjugate], for which the results for the “amount of I(a) contained in resultant formulation” value in data set [1] and in [5] were 9.9 mg/mL and 1.8 to 1.9 mg/mL, respectively. For the same compound, the “effect on cervical tumour cell line” value in data set [2] is “strong effect”. Also, in data set [2] (after 72 hours), the “results on cervical tumour cells” value is listed as “good results”. The “results on lung tumour cells” value in the data set with lung tumour cells is given as “good results”. In data set [3], this compound returned a viability of around 90%. Besides, in data set [3], the viability at 2.265 µM is above 60%. Also, the “selectivity for cancer cells over healthy cells” value in data set [4] (PBMC tests compared to tumour cell line tests) was “selectively kill cancer cells at a much higher percentage than healthy cells”. The “PBMC cell death compared to narciclasine” value in [4] (in DMSO, 48 and 72 hours) was “small increase of cell death”. Besides, the “anti-cancer effect against a wide variety of cancers” value in [6] is “strong anti-cancer effect”. Besides, the “effect on prostate tumour cell line” value in data set [7] is on record as “strong effect”. Also, in [7] (after 72 hours), the “results on prostate tumour cells” value is recorded as “good results”. The “effect on pancreas tumour cell line” value in data set [8] was “strong effect”. For the same compound, the “effect against pancreas cancer” value in [8] (after 72 hours) is given as “works well”. Further, in data set [9], the “effect on colorectal tumour cell line” value is “strong effect”. The “effect against colorectal cancer” value in data set [9] (after 72 hours) was “works well”.

Consider `O=C1N[C@@H]2C(=C[C@H](O)[C@@H](O)[C@H]2O)c2cc3c(c(O)c21)OCO3` [narciclasine, reference compound], for which the “effect on cervical tumour cell line” value in data set [2] is “strong effect”. The “anti-cancer effect against a wide variety of cancers” value in data set [6] was “strong anti-cancer effect”. In addition, the “effect on prostate tumour cell line” value in data set [7] is given as “strong effect”. Moreover, the “effect on pancreas tumour cell line” value in data set [8] is recorded as “strong effect”. For the same compound, in data set [9], the “effect on colorectal tumour cell line” value was “strong effect”.

For orientation: viability means the share of living cells, or the viability signal relative to a control. A higher viability goes with less harm to the cells.
